Reference: patent US20240279304A1, “DSG2 COMPOSITIONS AND METHODS” (Arvada Therapeutics, Inc., priority 2021, published 2024)

Experiments:
[1] = test system: human iPSC-derived cardiomyocytes; test: CiPA multielectrode array (MEA) assay, cell index; type: cell-based
Protocol: To determine the effect of anti-DSG2 antibodies in cardiomyocytes, the cardiac in vitro proarrhythmia (CiPA) assay was performed (Sager et al. Am Heart J 2014; 167:292-300; the contents of which are herein incorporated by reference in its entirety). CiPA is envisioned to consist of four components: (1) an evaluation of the effects of test agents on cardiac ion channel assays; (2) in silico modeling of the cardiac action potential based on the ion channel results to integrate the data with cardiac function; (3) experimental measurement of test agent effects in human ventricular myocytes to confirm the modeling result; and (4) scoring the results. The multielectrode array (MEA) assay is a component of CiPA which uses human induced pluripotent stem cell (iPSC)-derived cardiomyocytes to evaluate two-dimensional excitation propagation by recording spontaneous ECG-like field potentials. The sodium spike quantified below is a measurement of the specific sodium channel current in the cardiomyocyte and is also described in Blinova K, et al. Cell Rep. 2018 Sep. 25; 24(13):3582-3592 (the contents of which are herein incorporated by reference in its entirety). CiPA is considered a clinically validated cardiomyocyte-based assay by the FDA and the EMA. […] The parameters evaluated include measuring a change in the spike in the component of electrical signal propagation (e.g. sodium spike) and cell index—a function of cell impedance and cell number. Changes in sodium spike may be indicative of arrhythmia and a change in cell index (CI) may be indicative of changes to cell connectivity.
Cell index is inversely related the cell layer's conductivity to electrical current. Increased conductivity across the cell layer, may indicate that there are more gaps in the cell layer, implying that the cells are less well-adhered to each other. Thus, increased conductivity across the cell layer, may result in lower cell index. […] The concentration of anti-DSG2 antibodies varied from 0.00005 μg/mL to 5 μg/mL. […] The concentration of lidocaine varied from 3 μM to 100 μM. […] The concentration of anti-DSG2 antibodies varied from 0.00005 μg/mL to 5 μg/mL.

[2] = test system: human iPSC cardiomyocytes; test: CiPA multielectrode array (MEA) assay, sodium spike; type: cell-based; details: anti-DSG2 antibodies 0.5 μg/mL; lidocaine 10 μM; negative controls 0.5 g/mL as printed; 0 to 96 hours
Protocol: To determine the effect of anti-DSG2 antibodies in cardiomyocytes, the cardiac in vitro proarrhythmia (CiPA) assay was performed (Sager et al. Am Heart J 2014; 167:292-300; the contents of which are herein incorporated by reference in its entirety). CiPA is envisioned to consist of four components: (1) an evaluation of the effects of test agents on cardiac ion channel assays; (2) in silico modeling of the cardiac action potential based on the ion channel results to integrate the data with cardiac function; (3) experimental measurement of test agent effects in human ventricular myocytes to confirm the modeling result; and (4) scoring the results. […] The sodium spike quantified below is a measurement of the specific sodium channel current in the cardiomyocyte and is also described in Blinova K, et al. Cell Rep. […] The parameters evaluated include measuring a change in the spike in the component of electrical signal propagation (e.g. sodium spike) and cell index—a function of cell impedance and cell number. […]
Commercially available anti-DSG2 antibodies were tested in the cardiomyocyte CiPA assay. […] The voltage (μV) is measured at time intervals of 0, 1 hour, 12 hours, 24 hours, 48 hours, 72 hours, and 96 hours. […]

anti-DSG2 antibody [3] = test: anti-DSG2 antibody MSD assay; inhibition of the antibody signal by the fusion polypeptide; antibody at 200 ng/mL
anti-DSG2 antibody [4] = test: anti-DSG2 antibody MSD assay; inhibition of the antibody signal by the fusion polypeptide; antibody at 1000 ng/mL

Molecule | Cell Index (+/- SEM) ([1]; 3 μM) | Cell Index (+/- SEM) ([1]; 10 μM) | Cell Index (+/- SEM) ([1]; 30 μM) | Cell Index (+/- SEM) ([1]; 100 μM) | effect on cell index (in words) ([1]; lidocaine 3 μM to 100 μM, antibodies 0.00005 μg/mL to 5 μg/mL) | effect on cardiomyocyte sodium spike (in words) [2] | % inhibition (anti-DSG2 antibody [3]) [%] | % inhibition (anti-DSG2 antibody [4]) [%]
CCN(CC)CC(=O)Nc1c(C)cccc1C [Lidocaine, lidocaine] | 19.9 (2.84) | 20.2 (3.1) | 18.7 (2.0) | 11.0 (4.8) | marked reduction in cell index and likely cell death | dampen the sodium spike |  | 
recombinant human desmoglein-2 Fc chimera protein, CF (DSG2FP#1) (Fc fusion) |  |  |  |  |  |  | 63.8 | 88.4
